Tests used:
Test in all cases: relative viability (nuclei count vs DMSO), 5 days (fraction); higher = more cells survive
[1] = compound: C[C@]12O[C@H](C[C@]1(O)CO)n1c3ccccc3c3c4c(c5c6ccccc6n2c5c31)CNC4=O [Lestaurtinib] + CC1(C)CCC(c2ccc(Cl)cc2)=C(CN2CCN(c3ccc(C(=O)NS(=O)(=O)c4ccc(N[C@H](CCN5CCOCC5)CSc5ccccc5)c(S(=O)(=O)C(F)(F)F)c4)cc3)CC2)C1 [Navitoclax] (partner 0.5 µM)
Method in brief: (§1)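 Nuclei were stained with Hoechst during a one-step fixation (final 0.05% Triton X-100, 1% formaldehyde, 1 ug/ml Hoechst) carried out 5 days after dosing, then counted on 4× images. The cells, lung cancer lines in 1536-well plates, had been dosed by pin tool the day after seeding with one drug alone or a fixed anchor-drug dose plus five library-drug doses (not always all listed) in √10 steps. Relative viability is the nuclei count in treated wells divided by that in vehicle wells, and each value is the median of duplicate plates.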

[2] = compound: C[C@]12O[C@H](C[C@]1(O)CO)n1c3ccccc3c3c4c(c5c6ccccc6n2c5c31)CNC4=O [Lestaurtinib] + COc1cc2c(Oc3ccc(NC(=O)C4(C(=O)Nc5ccc(F)cc5)CC4)cc3F)ccnc2cc1OCCCN1CCOCC1 [Foretinib] (partner 0.25 µM)
Method in brief: as §1

[3] = compound: C[C@]12O[C@H](C[C@]1(O)CO)n1c3ccccc3c3c4c(c5c6ccccc6n2c5c31)CNC4=O [Lestaurtinib] + Cc1nc(Nc2ncc(C(=O)Nc3c(C)cccc3Cl)s2)cc(N2CCN(CCO)CC2)n1 [Dasatinib] (partner 0.075 µM)
Method in brief: as §1

[4] = compound: C[C@]12O[C@H](C[C@]1(O)CO)n1c3ccccc3c3c4c(c5c6ccccc6n2c5c31)CNC4=O [Lestaurtinib] + Nc1nc2[nH]cc(CCc3ccc(C(=O)N[C@@H](CCC(=O)O)C(=O)O)cc3)c2c(=O)[nH]1 [Pemetrexed] (partner 0.2 µM)
Method in brief: as §1

Cell Line | relative viability ([1]; first compound 0.005 µM) | relative viability ([1]; first compound 0.01581 µM) | relative viability ([1]; first compound 0.05 µM) | relative viability ([1]; first compound 0.1581 µM) | relative viability ([1]; first compound 0.5 µM) | relative viability ([2]; first compound 0.005 µM) | relative viability ([2]; first compound 0.01581 µM) | relative viability ([2]; first compound 0.05 µM) | relative viability ([2]; first compound 0.1581 µM) | relative viability ([2]; first compound 0.5 µM) | relative viability ([3]; first compound 0.005 µM) | relative viability ([3]; first compound 0.01581 µM) | relative viability ([3]; first compound 0.05 µM) | relative viability ([3]; first compound 0.1581 µM) | relative viability ([3]; first compound 0.5 µM) | relative viability ([4]; first compound 0.005 µM) | relative viability ([4]; first compound 0.01581 µM) | relative viability ([4]; first compound 0.05 µM) | relative viability ([4]; first compound 0.1581 µM) | relative viability ([4]; first compound 0.5 µM)
NCI-H1975 | 1.25 | 1.23 | 1.03 | 0.666 | 0.473 | 1.09 | 0.99 | 0.927 | 0.731 | 0.538 | 0.479 | 0.396 | 0.373 | 0.328 | 0.257 | 0.298 | 0.295 | 0.292 | 0.281 | 0.218
NCI-H1993 | 1.16 | 0.991 | 0.846 | 0.632 | 0.7 | 0.791 | 0.771 | 0.77 | 0.63 | 0.535 | 0.565 | 0.32 | 0.504 | 0.495 | 0.468 | 0.581 | 0.657 | 0.644 | 0.411 | 0.497
NCI-H2009 | 1.16 | 1.25 | 1.06 | 1.3 | 0.22 | 1.24 | 1.3 | 1.17 | 1.09 | 0.751 | 0.257 | 0.227 | 0.2 | 0.211 | 0.118 | 1.07 | 1.06 | 0.998 | 0.934 | 0.835
NCI-H2023 | 1.13 | 1.06 | 0.875 | 0.88 | 0.252 | 1.02 | 0.758 | 0.843 | 1.01 | 0.164 | 0.674 | 0.586 | 0.422 | 0.473 | 0.159 | 0.292 | 0.285 | 0.201 | 0.153 | 0.0898
NCI-H2085 | 1.15 | 1.36 | 1.1 | 1.27 | 0.979 | 1.01 | 0.885 | 0.801 | 1.05 | 0.826 | 0.236 | 0.265 | 0.3 | 0.335 | 0.496 | 0.861 | 0.877 | 0.915 | 0.858 | 0.78
NCI-H2087 | 0.946 | 0.853 | 0.686 | 0.707 | 0.26 | 1.13 | 1.31 | 0.848 | 0.703 | 0.266 | 0.843 | 0.81 | 0.494 | 0.724 | 0.319 | 0.708 | 0.688 | 0.675 | 0.632 | 0.332
NCI-H2126 | 0.924 | 0.914 | 0.854 | 0.632 | 0.75 | 1.19 | 1.31 | 1.1 | 1.1 | 0.926 | 0.678 | 0.759 | 0.59 | 0.624 | 0.463 | 0.757 | 0.685 | 0.66 | 0.666 | 0.476
NCI-H2170 | 0.378 | 0.393 | 0.368 | 0.442 | 0.263 | 0.969 | 1.02 | 0.907 | 0.962 | 0.358 | 0.493 | 0.551 | 0.466 | 0.364 | 0.376 | 0.258 | 0.259 | 0.259 | 0.261 | 0.175
